Measurements: the supplement of paper PMC8671470
Counter-ions that a name gives are not always drawn.

These compounds were tested on LAMA-84 (assay: cell viability (% survival relative to DMSO control, bortezomib = 0%); higher = less cytotoxic). Conditions: 1 nM; 72 h.
In short: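 Fifteen myeloid leukaemia cell lines were exposed to compounds at 1, 10, 100, 1000 or 10000 nM in 384-well plates for 72 h at 37 °C and 5% CO2. Viability was read by CellTiter-Glo luminescence and normalised, with vehicle as 100% and a 10 µM positive control as 0%. Values are percent survival averaged over duplicates.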
Cc1nc(-c2ccccc2)sc1C(=O)Nc1ccc(S(N)(=O)=O)cc1 gave a cell viability of 107%.
Work on C=CC(=O)c1ccc(O)cc1 [4-Acryloylphenol] yielded a cell viability of 86.7%.
Compound O=c1cc(-c2ccccc2)oc2c1ccc1ccccc12 [Alpha-Naphtoflavone] has a cell viability of 103%.
With Cc1c(Cl)cccc1S(=O)(=O)Nc1nc(CC(=O)N2CCN(C)CC2)cs1 [BVT-2733] the cell viability was 101%.
CCc1oc2ccccc2c1C(=O)c1cc(Br)c(O)c(Br)c1 [Benzbromarone] showed a cell viability of 103%.
CCOC(=O)c1sc(NC(=O)c2ccco2)c(SC#N)c1C [CBR-5884] gave a cell viability of 89.2%.
CCCCCOC(=O)Nc1nc(=O)n([C@@H]2O[C@H](C)[C@@H](O)[C@H]2O)cc1F [Capecitabine] gave a cell viability of 91.9%.
Cc1ccc(-c2cc(C(F)(F)F)nn2-c2ccc(S(N)(=O)=O)cc2)cc1 [Celecoxib] was tested, and the cell viability was 98.6%.
O=c1c(-c2ccc(O)cc2)coc2cc(O[C@@H]3O[C@H](CO)[C@@H](O)[C@H](O)[C@H]3O)ccc12 [Daidzin] was tested, and the cell viability was 102%.
In the case of C[C@H]1c2cccc(O)c2C(=O)C2C(=O)[C@]3(O)C(=O)C(C(N)=O)C(=O)[C@@H](N(C)C)[C@@H]3[C@@H](O)[C@@H]21 (stereo partly drawn) [Doxycycline], the cell viability is reported as 101%.
Compound OC[C@H]1NC[C@H](O)[C@@H](O)[C@@H]1O [Duvoglustat] has a cell viability of 84.3%.
O=C(NCCN1CCC(n2c(O)nc3ccccc32)CC1)c1cc2cc(F)ccc2[nH]1 [FIPI] was tested, and the cell viability was 99.3%.
Work on CCN(CCO)CCCC(C)Nc1ccnc2cc(Cl)ccc12 (stereo not drawn) [Hydroxychloroquine sulfate] yielded a cell viability of 87%.
Work on O=C([O-])CC(O)(C(=O)[O-])C(O)C(=O)[O-].[K+].[K+].[K+] (stereo not drawn) [Hydroxycitrate] yielded a cell viability of 93%.
Compound CCCCCN(C)CCC(O)(P(=O)(O)O)P(=O)(O)O [Ibandronate] has a cell viability of 104%.
Compound Cc1cc(C(=O)NNCc2ccccc2)no1 [Isocarboxazid] has a cell viability of 98.9%.
CCn1c(=Cc2cccc[n+]2CC)sc(=C2Sc3ccccc3N2C)c1=O [MKT 077] showed a cell viability of 105%.
COC(=O)c1cc2c(C(F)(F)F)cc(-c3ccccc3)cc2n1O [NHI-2] gave a cell viability of 91.9%.
CCCCCCCC/C=C\CCCCCCCC(=O)Nc1ccccc1 [Octadec-9-Enoic Acid Phenylamide] was tested, and the cell viability was 107%.
For CC[C@H](C)[C@H](N)C(=O)N1CCSC1 [P32/98], the cell viability was 96.6%.
OC[C@H]1O[C@@H](n2cnc3c2N=CNC[C@H]3O)C[C@@H]1O [Pentostatin] gave a cell viability of 102%.
For CC(C)CC(=O)N[C@H](C(=O)N[C@H](C(=O)N[C@@H](CC(C)C)[C@@H](O)CC(=O)N[C@@H](C)C(=O)N[C@@H](CC(C)C)[C@@H](O)CC(=O)O)C(C)C)C(C)C [Pepstatin A], the cell viability was 92.2%.
Work on Cc1cccc(Nc2cc(Cl)nc(SCC(=O)O)n2)c1C [Pirinixic acid] yielded a cell viability of 100%.
Work on C[C@]12C=CC(=O)C=C1CC[C@@H]1[C@@H]2[C@@H](O)C[C@@]2(C)[C@H]1CC[C@]2(O)C(=O)CO [Prednisolone] yielded a cell viability of 94.1%.
N[C@@H](CC(=O)N1CCn2c(nnc2C(F)(F)F)C1)Cc1cc(F)c(F)cc1F [Sitagliptin] was tested, and the cell viability was 93.1%.
CCCc1nc(C)c2c(=O)nc(-c3cc(S(=O)(=O)N4CCN(CC)CC4)ccc3OCC)[nH]n12 [Vardenafil] showed a cell viability of 92.6%.
CCc1c(C(=O)C(N)=O)c2c(OCC(=O)O)cccc2n1Cc1ccccc1 [Varespladib] showed a cell viability of 95.6%.
For N#Cc1ccc(N(Cc2ccc(Br)cc2)n2cnnc2)cc1 [YM511], the cell viability was 106%.
N#C/C(=C\c1ccc(O)cc1)C(=O)O [alpha-cyano-4-hydroxycinnamic acid] was tested, and the cell viability was 96.5%.

Same assay, conditions: 10 nM; 72 h
CN(CCCOc1ccc(Cc2ccccc2)cc1)CCC(=O)O was tested, and the cell viability was 119%.
Work on COc1ccc2c(NC(=O)Nc3cccc(C(F)(F)F)n3)ccnc2c1 yielded a cell viability of 100%.
Cc1nc(-c2ccccc2)sc1C(=O)Nc1ccc(S(N)(=O)=O)cc1 gave a cell viability of 99.9%.
C=CC(=O)c1ccc(O)cc1 [4-Acryloylphenol] was tested, and the cell viability was 91.9%.
O=c1cc(-c2ccccc2)oc2c1ccc1ccccc12 [Alpha-Naphtoflavone] was tested, and the cell viability was 95.9%.
Cc1c(Cl)cccc1S(=O)(=O)Nc1nc(CC(=O)N2CCN(C)CC2)cs1 [BVT-2733] was tested, and the cell viability was 93.4%.
CCc1oc2ccccc2c1C(=O)c1cc(Br)c(O)c(Br)c1 [Benzbromarone] gave a cell viability of 98.7%.
With CCOC(=O)c1sc(NC(=O)c2ccco2)c(SC#N)c1C [CBR-5884] the cell viability was 102%.
Work on CCCCCOC(=O)Nc1nc(=O)n([C@@H]2O[C@H](C)[C@@H](O)[C@H]2O)cc1F [Capecitabine] yielded a cell viability of 94.5%.
